US8337871B2, “Insecticide formulation” (Endura S.p.A., priority 2003, dated 2012)

Legend:
[1] = test system: cotton aphid strain (Aphis Gossypii); assay: Mortality assay on cotton aphid (example 19); conditions: for No. insects alive/no. total insects after 24 hours: in Agral 90, 24 hours
Method: In a mortality assay conducted as reported in the literature [Gunning R. V. et al., J. Econ. Entomol.
A mortality assay was performed as reported in example 4 on a cotton aphid strain (Aphis Gossypii) using the formulation described in example 10, dissolved in 10 ml Agral 90. Data obtained with fenvalerate dissolved in 10 ml Agral 90, and with placebo (10 ml Agral 90) are shown as a reference. In all tests, concentration values are referred to the amount of active principle.

[2] = test system: Heicoverpa Armigera strain (Cotton Bollworm); assay: Mortality assay on Cotton Bollworm (example 20); assay type: in vivo; conditions: in Agral 90, 24 hours
Method: Data obtained with αcypermethrin dissolved in 10 ml Agral 90, and with a mixture of αcypermethrin/PBO dissolved in 10 ml of Agral 90 (the PBO content being 0.2% with respect to αcypermethrin) are shown as a reference.

[3] = test system: Bemisia Tabaci strain (B-Biotype) (Silver leaf whitefly); assay: Mortality assay on Bemisia Tabaci (example 18); assay type: in vivo; conditions: in Agral 90, 48 hours
Method: (B-Biotype) (Silver leaf whitefly) using the formulation described in example 16, dissolved in 10 ml Agral 90.

[4] = concentration 0.0005 % w/v active principle
[5] = concentration 0.001 % w/v active principle
[6] = concentration 0.01 % w/v active principle
[7] = concentration 0.1 % w/v active principle

Row | Compound | mortality at 0.002 % strength ([1]; Aphis gossypii, 24 h) [%] | mortality at 0.02 % strength ([1]; Aphis gossypii, 24 h) [%] | mortality at 0.2 % strength ([1]; Aphis gossypii, 24 h) [%] | No. insects alive/no. total insects after 24 hours ([1]; concentration 0.002 % w/v active principle) | No. insects alive/no. total insects after 24 hours ([1]; concentration 0.02 % w/v active principle) | No. insects alive/no. total insects after 24 hours ([1]; concentration 0.2 % w/v active principle) | Mortality % [2, 4] [%] | No. insects alive/no. total insects after 24 hours [2, 4] | Mortality % [2, 5] [%] | No. insects alive/no. total insects after 24 hours [2, 5] | Mortality % [3, 6] [%] | No. insects alive/no. total insects after 48 hours [3, 6] | Mortality % [3, 7] [%] | No. insects alive/no. total insects after 48 hours [3, 7]
1 | CC(C)C(C(=O)OC(C#N)c1cccc(Oc2ccccc2)c1)c1ccc(Cl)cc1 (centres unmarked) [fenvalerate] | 0 | 20 | 40 | 10/10 | 8/10 | 6/10 | – | – | – | – | – | – | – | –
2 | CC1(C)C(C=C(Cl)Cl)C1C(=O)OC(C#N)c1cccc(Oc2ccccc2)c1 (centres unmarked) [αcypermethrin] | – | – | – | – | – | – | 40 | 6/10 | 60 | 4/10 | 19 | 22/27 | 67 | 4/12
